From patent US20230365592A1 (Agios Pharmaceuticals, Inc., priority 2022, published 2023)

Biological target: T1, human PAH with the R408W mutation (Homo sapiens, UniProt P00439, R408W)
T1 construct: expressed in transfected cells
T1 sequence (P00439 1-452 R408W): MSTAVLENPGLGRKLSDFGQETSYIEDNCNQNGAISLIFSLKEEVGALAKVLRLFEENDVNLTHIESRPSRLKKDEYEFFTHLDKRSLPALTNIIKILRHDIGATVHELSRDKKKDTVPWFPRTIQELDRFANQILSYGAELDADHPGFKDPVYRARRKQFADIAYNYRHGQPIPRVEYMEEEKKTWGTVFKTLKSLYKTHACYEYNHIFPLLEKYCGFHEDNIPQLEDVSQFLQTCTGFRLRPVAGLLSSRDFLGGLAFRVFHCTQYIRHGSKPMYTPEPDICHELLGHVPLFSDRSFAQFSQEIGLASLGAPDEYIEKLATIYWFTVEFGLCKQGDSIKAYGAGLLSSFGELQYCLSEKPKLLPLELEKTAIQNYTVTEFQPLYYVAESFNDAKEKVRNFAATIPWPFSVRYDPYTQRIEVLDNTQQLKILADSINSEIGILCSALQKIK
Test: Cell Based Phenylalanine Flux Assay;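 further: after compound treatment, cells received sepiapterin plus isotope-labelled Phenylalanine for 4 hours, then labelled Tyrosine in the medium was quantified, 10-point 2-fold dilution series run in duplicate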
Settings: A375 cells expressing R408W PAH; 24 hrs with compound, then 20 µM sepiapterin and 800 µM 13C9,15N-Phenylalanine for 4 hours; 13C-Tyrosine by LC-MS; average where tested multiple times; read-out: AC50

| SMILES | AC50 [nM] |
| --- | --- |
| Cc1cccc2cc([C@@H]3c4nc[nH]c4CCN3C(=O)c3cnc(C(C)(C)O)o3)nn12 (single isomer, unassigned) | 1000 to 5000 |
| CN(C)CCc1ccc2c(C(=O)N3CCc4[nH]cnc4C3c3cc4cccc(C(F)(F)F)n4n3)cnn2c1 (stereo not drawn) | 1000 to 5000 |
| c1cncc(-c2nnc(N3CCc4[nH]cnc4C3c3cc4c(C5CC5)cccn4n3)o2)c1 (stereo not drawn) [listing 1 of 2 here] | > 5000 |
| c1cncc(-c2nnc(N3CCc4[nH]cnc4C3c3cc4c(C5CC5)cccn4n3)o2)c1 (stereo not drawn) [listing 2 of 2 here] | 1000 to 5000 |

More lines, now with the values ahead:

| AC50 [nM] | SMILES |
| --- | --- |
| > 5000 | O=C(c1cnc(-c2ncccn2)o1)N1CCc2[nH]cnc2C1c1cc2c(F)cccn2n1 (stereo not drawn) |
| 1000 to 5000 | CC(C)(O)c1nnc(C(=O)N2CCc3[nH]cnc3C2c2cc3ccc(C(F)(F)F)cn3n2)o1 (stereo not drawn) |

Same assay, conditions: A375 cells expressing human PAH R408W; 24 hrs compound incubation; 13C-Tyrosine by LC-MS; average where tested multiple times; read-out: AC50

| SMILES | AC50 [nM] |
| --- | --- |
| CC(C)c1cccn2nc([C@@H]3c4nc[nH]c4CCN3c3nnc(-c4ncccc4F)o3)cc12 [Example 2355, (S)-2-(3-fluoropyridin-2-yl)-5-(4-(4-isopropylpyrazolo[1,5-a]pyridin-2-yl)-1,4,6,7-tetrahydro-5H-imidazo[4,5-c]pyridin-5-yl)-1,3,4-oxadiazole] | 500 to 1000 |
| COc1ccc2c(C(=O)N3CCc4[nH]cnc4[C@H]3c3cc4cccc(Cl)n4n3)cnn2c1 [Example 2464, (S)-(4-(7-chloropyrazolo[1,5-a]pyridin-2-yl)-6,7-dihydro-1H-imidazo[4,5-c]pyridin-5(4H)-yl)(6-methoxypyrazolo[1,5-a]pyridin-3-yl)methanone] | 1000 to 5000 |
| Cc1nnc(N2CCc3[nH]cnc3[C@H]2c2cc3c(OC(F)(F)F)cccn3n2)o1 [Example 2249, (S)-2-methyl-5-(4-(4-(trifluoromethoxy)pyrazolo[1,5-a]pyridin-2-yl)-1,4,6,7-tetrahydro-5H-imidazo[4,5-c]pyridin-5-yl)-1,3,4-oxadiazole] | < 500 |
| FC(F)(F)c1cnc(N2CCc3[nH]cnc3[C@H]2c2cc3cccc(Cl)n3n2)nc1 [Example 1800, (S)-4-(7-chloropyrazolo[1,5-a]pyridin-2-yl)-5-(5-(trifluoromethyl)pyrimidin-2-yl)-4,5,6,7-tetrahydro-1H-imidazo[4,5-c]pyridine] | < 500 |

Continued, values first:

| AC50 [nM] | SMILES |
| --- | --- |
| < 500 | CC(C)(C)c1ncc(C(=O)N2CCc3[nH]cnc3[C@H]2c2cc3c(C(F)F)cccn3n2)o1 [Example 2104, (S)-(2-(tert-butyl)oxazol-5-yl)(4-(4-(difluoromethyl)pyrazolo[1,5-a]pyridin-2-yl)-1,4,6,7-tetrahydro-5H-imidazo[4,5-c]pyridin-5-yl)methanone] |
| < 500 | Cn1ccc(-c2nnc(C(=O)N3CCc4[nH]cnc4[C@H]3c3cc4ccccn4n3)s2)n1 [Example 2016, (S)-(5-(1-methyl-1H-pyrazol-3-yl)-1,3,4-thiadiazol-2-yl)(4-(pyrazolo[1,5-a]pyridin-2-yl)-1,4,6,7-tetrahydro-5H-imidazo[4,5-c]pyridin-5-yl)methanone] |
| 500 to 1000 | O=C(c1ocnc1C1CC1)N1CCc2[nH]cnc2[C@H]1c1cc2cccc(C(F)F)n2n1 [Example 2112, (S)-(4-cyclopropyloxazol-5-yl)(4-(7-(difluoromethyl)pyrazolo[1,5-a]pyridin-2-yl)-1,4,6,7-tetrahydro-5H-imidazo[4,5-c]pyridin-5-yl)methanone] |
| 500 to 1000 | CC(C)(F)c1ncc(C(=O)N2CCc3[nH]cnc3[C@H]2c2cc3ccccn3n2)o1 [Example 1957, (S)-(2-(2-fluoropropan-2-yl)oxazol-5-yl)(4-(pyrazolo[1,5-a]pyridin-2-yl)-1,4,6,7-tetrahydro-5H-imidazo[4,5-c]pyridin-5-yl)methanone] |
| 1000 to 5000 | c1ccc(N2CCc3[nH]cnc3[C@@H]2c2cc3ccccn3n2)cc1 [Example 2238, (R)-5-phenyl-4-(pyrazolo[1,5-a]pyridin-2-yl)-4,5,6,7-tetrahydro-1H-imidazo[4,5-c]pyridine] |

Same assay, conditions: A375 cells expressing human R408W PAH; 24 hrs compound incubation; 13C-Tyrosine by LC-MS; average where tested multiple times; read-out: AC50

| SMILES | AC50 [nM] |
| --- | --- |
| Cc1cccn2nc([C@H]3c4nc[nH]c4CCN3c3ncccn3)cc12 [Example 1619, (R)-4-(4-methylpyrazolo[1,5-a]pyridin-2-yl)-5-(pyrimidin-2-yl)-4,5,6,7-tetrahydro-1H-imidazo[4,5-c]pyridine] | 1000 to 5000 |
| Cn1nc(C(F)F)nc1C(=O)N1CCc2[nH]cnc2[C@@H]1c1cc2c(F)cccn2n1 [Example 765, (R)-(3-(difluoromethyl)-1-methyl-1H-1,2,4-triazol-5-yl)(4-(4-fluoropyrazolo[1,5-a]pyridin-2-yl)-6,7-dihydro-1H-imidazo[4,5-c]pyridin-5(4H)-yl)methanone] | 1000 to 5000 |
| Cc1cccn2nc([C@H]3c4nc[nH]c4CCN3C(=O)c3cnn4cc(-c5ccccn5)ccc34)cc12 [Example 1649, (R)-(4-(4-methylpyrazolo[1,5-a]pyridin-2-yl)-6,7-dihydro-1H-imidazo[4,5-c]pyridin-5(4H)-yl)(6-(pyridin-2-yl)pyrazolo[1,5-a]pyridin-3-yl)methanone] | > 5000 |
| COc1ccc2c(C(=O)N3CCc4[nH]cnc4[C@H]3c3cc4c(Cl)cccn4n3)cnn2c1 [Example 1698, (S)-(4-(4-chloropyrazolo[1,5-a]pyridin-2-yl)-6,7-dihydro-1H-imidazo[4,5-c]pyridin-5(4H)-yl)(6-methoxypyrazolo[1,5-a]pyridin-3-yl)methanone] | < 500 |
| Cn1ccc(-c2ccc3c(C(=O)N4CCc5[nH]cnc5[C@H]4c4cc5c(C(F)(F)F)cccn5n4)cnn3c2)n1 [Example 1596, (S)-(6-(1-methyl-1H-pyrazol-3-yl)pyrazolo[1,5-a]pyridin-3-yl)(4-(4-(trifluoromethyl)pyrazolo[1,5-a]pyridin-2-yl)-6,7-dihydro-1H-imidazo[4,5-c]pyridin-5(4H)-yl)methanone] | < 500 |

Next, values leading:

| AC50 [nM] | SMILES |
| --- | --- |
| > 5000 | Cc1cccc2cc([C@H]3c4nc[nH]c4CCN3C(=O)c3nnc(-c4cnn(C(F)(F)F)c4)o3)nn12 [Example 1447, (R)-(4-(7-methylpyrazolo[1,5-a]pyridin-2-yl)-6,7-dihydro-1H-imidazo[4,5-c]pyridin-5(4H)-yl)(5-(1-(trifluoromethyl)-1H-pyrazol-4-yl)-1,3,4-oxadiazol-2-yl)methanone] |
| < 500 | Cn1nc(Cl)nc1C(=O)N1CCc2[nH]cnc2[C@H]1c1cc2c(C(F)(F)F)cccn2n1 [Example 1078, (S)-(3-chloro-1-methyl-1H-1,2,4-triazol-5-yl)(4-(4-(trifluoromethyl)pyrazolo[1,5-a]pyridin-2-yl)-6,7-dihydro-1H-imidazo[4,5-c]pyridin-5(4H)-yl)methanone] |
| < 500 | Cc1nc(C(C)(C)F)oc1C(=O)N1CCc2[nH]cnc2[C@@H]1c1cc2c(Cl)cccn2n1 [Example 1277, (R)-(4-(4-chloropyrazolo[1,5-a]pyridin-2-yl)-6,7-dihydro-1H-imidazo[4,5-c]pyridin-5(4H)-yl)(2-(2-fluoropropan-2-yl)-4-methyloxazol-5-yl)methanone] |
| < 500 | Cc1ncccc1-c1nnc(C(=O)N2CCc3[nH]cnc3[C@H]2c2cc3cccc(Cl)n3n2)o1 [Example 1334, (S)-(4-(7-chloropyrazolo[1,5-a]pyridin-2-yl)-6,7-dihydro-1H-imidazo[4,5-c]pyridin-5(4H)-yl)(5-(2-methylpyridin-3-yl)-1,3,4-oxadiazol-2-yl)methanone] |
| 1000 to 5000 | CC(C)(C)c1nnc(C(=O)N2CCc3[nH]cnc3[C@@H]2c2cc3c(C(F)F)cccn3n2)o1 [Example 1408, (R)-(5-(tert-butyl)-1,3,4-oxadiazol-2-yl)(4-(4-(difluoromethyl)pyrazolo[1,5-a]pyridin-2-yl)-6,7-dihydro-1H-imidazo[4,5-c]pyridin-5(4H)-yl)methanone] |
| > 5000 | CN(C)c1ccc2c(C(=O)N3CCc4[nH]cnc4[C@@H]3c3cc4c(C(F)(F)F)cccn4n3)cnn2c1 [Example 1747, (R)-(6-(dimethylamino)pyrazolo[1,5-a]pyridin-3-yl)(4-(4-(trifluoromethyl)pyrazolo[1,5-a]pyridin-2-yl)-6,7-dihydro-1H-imidazo[4,5-c]pyridin-5(4H)-yl)methanone] |
| 1000 to 5000 | CC(C)(O)c1nc(C(F)(F)F)c(C(=O)N2CCc3[nH]cnc3[C@@H]2c2cc3c(F)cccn3n2)o1 [Example 745, (R)-(4-(4-fluoropyrazolo[1,5-a]pyridin-2-yl)-6,7-dihydro-1H-imidazo[4,5-c]pyridin-5(4H)-yl)(2-(2-hydroxypropan-2-yl)-4-(trifluoromethyl)oxazol-5-yl)methanone] |
| < 500 | O=C(c1nnc(-c2ccc(F)cn2)o1)N1CCc2[nH]cnc2[C@H]1c1cc2c(F)cccn2n1 [Example 881, (S)-(4-(4-fluoropyrazolo[1,5-a]pyridin-2-yl)-6,7-dihydro-1H-imidazo[4,5-c]pyridin-5(4H)-yl)(5-(5-fluoropyridin-2-yl)-1,3,4-oxadiazol-2-yl)methanone] |
| < 500 | FC(F)(F)c1cnc(N2CCc3[nH]cnc3[C@H]2c2cc3ccccn3n2)nc1 [Example 1752, (S)-4-(pyrazolo[1,5-a]pyridin-2-yl)-5-(5-(trifluoromethyl)pyrimidin-2-yl)-4,5,6,7-tetrahydro-1H-imidazo[4,5-c]pyridine] |
| 1000 to 5000 | Cn1cnc(-c2nnc(C(=O)N3CCc4[nH]cnc4[C@@H]3c3cc4cccc(C(F)(F)F)n4n3)o2)c1 [Example 1033, (R)-(5-(1-methyl-1H-imidazol-4-yl)-1,3,4-oxadiazol-2-yl)(4-(7-(trifluoromethyl)pyrazolo[1,5-a]pyridin-2-yl)-6,7-dihydro-1H-imidazo[4,5-c]pyridin-5(4H)-yl)methanone] |
